# Publication PMC4569406, “Identification of Tetraazacyclic Compounds as Novel Potent Inhibitors Antagonizing RORγt Activity and Suppressing Th17 Cell Differentiation” (PLoS ONE, 2015)
# “Also recorded” adds a separate entry of the source.
# Key:
# IL-17A secretion = IL-17A secretion by ELISA under Th17 polarizing conditions; type: cell-based, mouse; conditions: 5 μM; for IL-17A concentration in supernatant / reduction of IL-17A secretion vs vehicle-treated control cells: Th17 polarizing conditions, ELISA
# Description: (§1) CD4^+CD25^- T cells were isolated from spleens of 12-week-old C57BL/6 as follows: single-cell suspensions were made by crushing the spleen through a cell strainer, and red blood cells (RBCs) were lysed with an RBC lysis buffer. CD4^+ T cells were then purified using MACS magnetic cell column with a CD4^+ T cell isolation kit (Miltenyi, Biotec) according to the manufacturer’s protocol. Isolated cells were fluorescently stained with PE-conjugated anti-mouse TCR-βAb, PE-Cy7-conjugated anti-mouse CD4 Ab and APC-conjugated anti-mouse CD25 Ab (BD Bioscience, USA) and analyzed by flow cytometry.
# (§2) The isolated CD4^+CD25^- T cells (3x10^6) were cultured under Th17 conditions. […] Specifically, the isolated CD4^+CD25^- T cells (3x10^6) were stimulated (in 6-well plates) with 5 μg/ml plate-bound anti-CD3e antibody (eBioscience, USA) and 2 μg/ml soluble anti-CD28 Ab (eBioscience, USA) for 24 hours. Then the activated cells were collected, resuspended and seeded into 96-well round-bottom plates (2x10^4) for Th17 differentiation in the presence of 5 ng/ml recombinant human TGF-β, 30 ng/ml recombinant mouse IL-6 (R&D systems) and DMSO as control or hit compounds with a final concentration of 5 μM. The cells were cultured for 2 days. Later, fresh medium was added (100ul/well) containing recombinant human TGF-β, recombinant mouse IL-6 (R&D systems) and the hit compounds as previously introduced for culturing another 2 days.
# After 5 days of culture, the concentration of IL-17A in the supernatant was determined by an ELISA kit according to the manufacturer’s protocol (CUSABIO Systems, China).
# [1] = tested on: Th17 cell differentiation; assay: Th17 differentiation of mouse CD4+CD25- T cells, qPCR of Rorγt, Il17a, Il17f; type: cell-based; conditions: 5 μM, normalized to Gapdh; for attenuation of Il17a mRNA expression vs vehicle-treated control: Th17 polarizing conditions (TGF-β, IL-6); for suppression of Il17f mRNA expression: Th17 polarizing conditions
# Description: as §1, §2
# After 5 days of culture, splenocyte total RNA was extracted with TRIzol (Invitrogen, USA). Then about 1000ng total RNA was added to a 20 μL reaction volume for reverse transcriptions by the GoScript Reverse Transcription System (Promega, USA) according to the manufacturer’s instructions, followed by real-time quantification using GoTaq qPCR Master Mix (Promega, USA). Gene expression of mouse Rorγt, Il17a and Il17f was normalized to the expression of Gapdh. The following primer sequences were used: Rorc forward 5’-TGTAATGTGG CCTACTCCTGCA-3’, reverse 5’-[…]-3’; Il17a forward 5’-[…]-3’, reverse 5’-[…]-3’; Il17f forward 5’-[…]-3’, reverse 5’- […]-3’; Gapdh forward 5’-[…]-3’, reverse 5’-[…]-3’.
# [2] = Cell viability (MTT) assay; type: cell-based; conditions: human, wild type Jurkat cells, highest concentration 5 μM
# Procedure: The cell viabilities of Jurkat cells (wild type) after treatment with chemicals were assessed by MTT technique. In brief, wild type Jurkat cells were seeded (2x10^4) and incubated with the compounds by 5-fold gradient concentrations, as described above. 48h treatment later, MTT (Dimethylthiazolyl-2-5-diphenyltetrazolium bromide) dye solution (Sigma, USA) was added into the 96-well plate and incubated at 37°C for 4 h, MTT is cleaved by live cells to a colored formazan product. After centrifugation (1500rpm, 5min) the supernatant was discarded. 100μl DMSO was added to dissolve the formazan product and gently shaken for 10min. Absorbance at 570 nm wavelength was recorded using a Thermo Scientific Multiskan FC (Thermo Scientific, USA). Each treatment was repeated in quadruplicate. Cell viabilities were defined relative to control cells (DMSO treated). The half-maximal cytotoxic concentration (CC50) for each compound was calculated from these dose-response curves with the aid of Graphpad Prism software (GraphPad Software, CA).
# RORγt-LBD [3] = molecular target: T1, RORγt-LBD (Homo sapiens, UniProt P51449); assay: Gal4-RORγtLBD luciferase reporter assay in RORγt+-Jurkat stable cells (HTS / EC50 assay); type: cell-based; parameters: Human RORγtLBD was amplified from cDNA of human PBMC; expressed in transfected cells; host or cells: Jurkat cells stably carrying pGL4.31[luc2P/GAL4UAS/Hygro], GFP-sorted; conditions: for EC50: 5 μM to 8 nM 5-fold gradient, read-out: EC50 (anti-RORγt activity, relative luciferase activity)
# T1 sequence (P51449 269-508 limits assumed): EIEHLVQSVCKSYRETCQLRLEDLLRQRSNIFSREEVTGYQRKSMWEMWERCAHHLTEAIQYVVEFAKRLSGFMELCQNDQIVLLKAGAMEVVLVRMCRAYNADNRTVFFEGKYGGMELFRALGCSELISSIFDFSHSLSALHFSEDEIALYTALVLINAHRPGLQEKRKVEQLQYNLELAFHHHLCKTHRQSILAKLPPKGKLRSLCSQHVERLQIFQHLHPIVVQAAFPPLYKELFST
# Description: (§3) The pGL4.31[luc2P/GAL4UAS/Hygro] reporter plasmid and the pBIND vector were purchased from Promega (USA). The fragment of IRES-GFP was first inserted into NotI sites of pBIND. Human RORγtLBD was amplified from cDNA of human PBMC (cDNA is provided by Dr. Hui Zhang) and then cloned into the pBIND-IRES-GFP to generate the fusion sequence Gal4DBD-RORγtLBD-IRES-GFP. The primers that were used to construct the pBIND-Gal4DBD-RORγtLBD-IRES-GFP plasmid are shown as follows: RORγtLBD forward 5’- […]-3’, reverse 5’- […] -3’.
# (§4) Similar to the above procedure, to obtain the needed Jurkat-RORγt reporter cell lines, a total of 1x10^7 Jurkat cells were transfected with 20 μg pGL4.31 reporter plasmids by electroporation (Lonza, Swiss) according to the manufacturer’s instructions. The transfected Jurkat cells were also selected in RPMI 1640 medium containing 200 μg/mL hygromycin B. And then the 20 μg PBIND-RORγtLBD-IRES-GFP plasmids were also transfected into the stable Jurkat clone and were sorted by GFP. GFP^+-Jurkat stable cell purity was determined >96% by flow cytometry analysis and GFP^--Jurkat stable cells were also sorted (Fig 1).
# RORγt^+-Jurkat stable cells (2x10^4) were seeded into 96-well round-bottom plates (Corning, Costar)and incubated in RPMI1640 complete medium overnight. At initial round screening, drug-like set compounds (Enamine, Monmouth Jct, NJ) were added using a Tecan Freedom EVO150 (Tecan, Männedorf, Schweiz) with a final concentration of 50 μM, which used by other research. 50 μM concentration is pretty high in drug screening and always raises many false positive. To reduce these false positive, we reduced the compounds concentration to 5 μM in the second round validation screening. Column 12 of each plate received only DMSO instead of any compounds as a negative control. In addition, column 1 of each plate was treated with 100 nM PMA (Sigma-Aldrich, USA) as a positive control. 6 hours later, the cells were then lysed and assayed for luciferase activity (Promega, USA) following the manufacturer’s instructions.
# Jurkat-RORγt^+ stable cells were seeded into 96-well round-bottom plates (2x10^4) overnight and incubated with the compounds by 5-fold gradient, with final concentrations from 5μM to 8nM. 6h later, the cells were then lysed and assayed for luciferase activity (Promega, USA) following the manufacturer’s instructions. The values of half-maximal effective concentration (EC50) were determined by plotting the logarithm of compound concentration versus relative luciferase activity.
# The EC50 and CC50 of all three compounds were determined to further identify the effects of these three tetraazacyclic compounds. […] The CC50 values of each compound in Jurkat cells were also determined as previously described in the methods section.
# RORγt-LBD [4] = molecular target: T1, RORγt-LBD; assay: Inhibition of RORγt activity in RORγt+-293T stable reporter cells (luciferase); type: cell-based
# Description: as §3
# The 4 μg pGL4.31 reporter plasmids (promega, USA) were transfected into 293T cells (1 x 10^6) with Lipofectamin^TM 2000 (Invitrogen, USA) according to the manufacturer’s instructions. The transfected cells were then selected in medium containing 100 μg/mL hygromycin B (Roche, USA) for 3 weeks to obtain a stable clone which express pGL4.31 reporter gene. Then 4 μg pBIND-RORγtLBD-IRES-GFP plasmids were also transfected into the stable clone. The second transfected cells were sorted by Green Fluorescent Protein (GFP). Through this process, we obtained the 293T-RORγt stable reporter cell line. GFP^+-293T stable cell purity was determined >96% by flow cytometry analysis, which yielded a RORγt^+-293T (RORγt-LBD positive 293T cells) stable reporter cell line, and GFP^--293T stable cells were also sorted and used as a RORγt negative control cell line (Fig 1).
# RORγt^+-293T stable cells (1x10^4) were seeded into 96-well plates (Corning, Costar)and incubated in DMEM complete medium overnight. Then the candidates were added with a final concentration of 5 μM. Negative control (DMSO) and positive control were carried on as HTS. 6 hours later, the cells were then lysed and assayed for luciferase activity (Promega, USA) following the manufacturer’s instructions.
# [5] = tested on: Th17 cell differentiation; parameters: method as in PMID 21499262, PMID 22769242; conditions: cited from earlier work
# RORγt--Jurkat cells = assay: Luciferase reporter activity in RORγt--Jurkat (RORγt-LBD negative) control cells; type: cell-based; conditions: different concentrations of PMA (100 nM, 10 nM, 1 nM), 4 and 6 hr
# Procedure: as §4
# RORγt^+-Jurkat (RORγt-LBD positive Jurkat cells) and RORγt^--Jurkat (RORγt-LBD negative Jurkat cells) stable cells (1x10^5) were seeded onto separate 12-well plates and cultured overnight. Cells were then stimulated with different concentrations of PMA (100 nM, 10 nM, 1 nM) or DMSO (negative control) for 4, 6, and 8 hr. […] Luciferase activity was highest in cells cultured with 100nM PMA, it was at approximately 40-fold over the DMSO control (Fig 2A and 2B). When RORγt^+-Jurkat cells were cultured for 6 hr, the luciferase activity was nearly identical across the concentrations and increased from control by about 40-fold at various concentrations (Fig 2D and 2E). […]
smiles,measurement,setting,value
"CCN(CC)Cc1nc(Sc2nnnn2-c2ccccc2)c2c(C)c(C)sc2n1 [compound 7, N-[[5,6-dimethyl-4-(1-phenyltetrazol-5-yl)sulfanylthieno[3,2-e]pyrimidin-2-yl]methyl]-N-ethylethanamine]",IL-17A concentration in supernatant,IL-17A secretion,196 pg/mL
same,reduction of IL-17A secretion vs vehicle-treated control cells,IL-17A secretion,47%
same,suppression / reduction in IL-17A production (Discussion summary),"IL-17A secretion; mouse Th17 differentiation, for 11 and 14 both mRNA expression and protein secretion",~ 50%
same,attenuation of Il17a mRNA expression vs vehicle-treated control,[1],65%-80%
same,suppression of Il17f mRNA expression,[1],87%
same,CC50 at 48 h,[2],1500 nM
same,inhibition at 5 µM,"RORγt-LBD [3]; 5 μM, 6 hr, vs vehicle control",75%
same,EC50,"RORγt-LBD [3]; RORγt+-Jurkat cells, 6 hr",2600 nM
same,inhibition at 5 µM,"RORγt-LBD [4]; 5 μM, 6 h, vs vehicle control",95%
CC(=O)Nc1nc(C)c(S(=O)(=O)Nc2ccc(C(O)(C(F)(F)F)C(F)(F)F)cc2)s1 [SR1001],activity in Th17 cell differentiation study,[5],relatively weak activity
"CCCCCCCCCCCCCC(=O)O[C@@H]1[C@@H](C)[C@@]2(O)[C@@H](C=C(CO)C[C@]3(O)C(=O)C(C)=C[C@@H]23)[C@@H]2C(C)(C)[C@]12OC(C)=O [PMA, phorbol-12-myristate-13-acetate, reference compound]",luciferase activity in RORγt--Jurkat cells,RORγt--Jurkat cells,no significant increase
same,"luciferase activity, fold over DMSO control","RORγt-LBD [3]; RORγt+-Jurkat cells, 100 nM PMA, 4 hr",approximately 40 fold
same,"luciferase activity, fold increase from control","RORγt-LBD [3]; RORγt+-Jurkat cells, 100 nM, 10 nM, 1 nM PMA, 6 hr",approximately 40 fold
same,greatest increase in luciferase activity vs DMSO,"RORγt-LBD [4]; RORγt+-293T cells, 100 nM PMA, 4 hr and 6 hr",4–6 folds
"Cc1ccccc1-n1nnnc1Sc1ccnc2cc(Cl)ccc12 [compound 11, 7-chloro-4-[1-(2-methylphenyl)tetrazol-5-yl]sulfanylquinoline]",IL-17A concentration in supernatant,IL-17A secretion,136 pg/mL
same,reduction of IL-17A secretion vs vehicle-treated control cells,IL-17A secretion,63%
same,attenuation of Il17a mRNA expression vs vehicle-treated control,[1],65%-80%
same,suppression of Il17f mRNA expression,[1],90%
same,CC50 at 48 h,[2],> 5000 nM
same,EC50,"RORγt-LBD [3]; RORγt+-Jurkat cells, 6 hr",250 nM
same,inhibition of reporter activity in RORγt+-293T cells,"RORγt-LBD [4]; 5 μM, 6 h, vs vehicle control",significantly less inhibition
"Cc1cccc(C)c1-n1nnnc1Sc1ncnc2ccsc12 [compound 14, 4-[1-(2,6-dimethylphenyl)tetrazol-5-yl]sulfanylthieno[3,2-d]pyrimidine]",IL-17A concentration in supernatant,IL-17A secretion,88 pg/mL
same,reduction of IL-17A secretion vs vehicle-treated control cells,IL-17A secretion,74%
same,attenuation of Il17a mRNA expression vs vehicle-treated control,[1],65%-80%
same,suppression of Il17f mRNA expression,[1],did not significantly inhibited; also recorded: no significant inhibition
same,CC50 at 48 h,[2],> 5000 nM
same,EC50,"RORγt-LBD [3]; RORγt+-Jurkat cells, 6 hr",670 nM
same,inhibition of reporter activity in RORγt+-293T cells,"RORγt-LBD [4]; 5 μM, 6 h, vs vehicle control",significantly less inhibition
